According to US20220096516A1, “OLIGONUCLEOTIDE MOLECULE AND APPLICATION THEREOF IN TUMOR THERAPY” (Ractigen Therapeutics, priority 2019, published 2022):
d = 2'-deoxy (DNA); r = 2'-OH (RNA)

What follows are substances tested on LHPP gene (assay: High-throughput screening of saRNAs targeting LHPP promoter: LHPP mRNA by one-step RT-qPCR in Huh7 cells). Conditions: 10 nM saRNA, 72 hours, relative to control (Mock).
Assay type: cell-based, human
Protocol: Human liver cancer cell line Huh7 was cultured in DMEM medium (Gibco), containing 10% of calf serum (Sigma-Aldrich) and 1% of penicillin/streptomycin (Gibco). The cells were cultured at 5% CO2 and 37° C. According to the instructions provided by the manufacturer, RNAiMax (Invitrogen, Carlsbad, Calif.) was used to transfect small activating RNAs at a concentration of 10 nM (unless otherwise specified).
At the end of transfection, the media were discarded, and each well was washed with 150 μL of PBS once. After discarding the PBS, 50 μL of cell lysis buffer (Takara) was added to each well and incubated at room temperature for 5 min. 1 μL of the resulted cell lysis was taken from each well and analyzed by qPCR on an ABI 7500 fast real-time PCR system (Applied Biosystems) using a one-step TB Green™ PrimeScrip™ RT-PCR kit II (Takara, RR086A) Each transfection sample was repeatedly amplified in 3 replicate wells.
Reaction conditions were as follows: reverse transcription reaction (stage 1): 5 min at 42° C., 10 s at 95° C.; PCR reaction (stage 2): 5 s at 95° C., 20 s at 60° C., 45 cycles of amplification. HPRT1 and TBP were used as internal reference genes. PCR primers used for amplifying LHPP, HPRT1 and TBP genes are shown in Table 2, wherein LHPP was amplified using the LHPP F1/R1 primer pair.
To calculate the relative expression level (Erel) of LHPP (target gene) in an saRNA-transfected sample relative to control treatment (Mock), the Ct values of the target gene and the two internal reference genes were substituted into formula 1
Erel=2^(CtT^m^-CtT^s^)/((2^(CtR1^m^-CtR1^s^)*2^(CtR2^m^-CtR2^s^))^(1/2))
wherein CtTm was the Ct value of the target gene from the control (Mock) sample; CtTs was the Ct value of the target gene from the saRNA-treated sample; CtR1m was the Ct value of the internal reference gene 1 from the control (Mock) sample; CtR1s was the Ct value of the internal reference gene 1 from the saRNA-treated sample; CtR2m was the Ct value of the internal reference gene 2 from the control (Mock) sample; and CtR2s was the Ct value of the internal reference gene 2 from the saRNA-treated sample.
In order to obtain saRNAs capable of activating LHPP transcription, Huh7 cells were transfected with each of the aforementioned 290 saRNAs with a transfection concentration of 10 nM, and 72 hours later, according to the same method as described above, the cells were lysed and analyzed by one-step RT-qPCR to obtain the relative (compared with the control (Mock)) expression level of LHPP gene for each saRNA-treated sample. […] The observed maximum activation and maximum inhibition is 3.46 fold and 0.49 fold, respectively, saRNAs with activating activity are referred to as activating saRNAs, and the saRNAs with inhibiting activity are referred to as inhibiting saRNAs.
For “RAG7-886: saRNA duplex; sense ACCAGAAGUAAAGUGUUCUTT (SEQ ID NO: 25), antisense AGAACACUUUACUUCUGGUTT (SEQ ID NO: 189) (sugars from the 5' end r19 d2, backbone not given here)”, the “Fold of changes in relative LHPP mRNA expression level” value was 1.52 fold and the “Fold of changes in relative LHPP mRNA expression level (log2)” value was 0.60 log2.
“RAG7-147: saRNA duplex; sense UUUCUGCUUUUCCUGCUCUTT (SEQ ID NO: 66), antisense AGAGCAGGAAAAGCAGAAATT (SEQ ID NO: 230) (sugars from the 5' end r19 d2, backbone not given here)” was tested, and the “Fold of changes in relative LHPP mRNA expression level” value was 1.31 fold and the “Fold of changes in relative LHPP mRNA expression level (log2)” value was 0.39 log2.
For “RAG7-887: saRNA duplex; sense GACCAGAAGUAAAGUGUUCTT (SEQ ID NO: 51), antisense GAACACUUUACUUCUGGUCTT (SEQ ID NO: 215) (sugars from the 5' end r19 d2, backbone not given here)”, the “Fold of changes in relative LHPP mRNA expression level” value was 1.37 fold and the “Fold of changes in relative LHPP mRNA expression level (log2)” value was 0.46 log2.
For “RAG7-170: saRNA duplex; sense UUUGACCUUUCUUAGGGACTT (SEQ ID NO: 132), antisense GUCCCUAAGAAAGGUCAAATT (SEQ ID NO: 296) (sugars from the 5' end r19 d2, backbone not given here)”, the “Fold of changes in relative LHPP mRNA expression level” value was 1.16 fold and the “Fold of changes in relative LHPP mRNA expression level (log2)” value was 0.21 log2.
“RAG7-150: saRNA duplex; sense UGUUUUCUGCUUUUCCUGCTT (SEQ ID NO: 32), antisense GCAGGAAAAGCAGAAAACATT (SEQ ID NO: 196) (sugars from the 5' end r19 d2, backbone not given here)” was tested, and the “Fold of changes in relative LHPP mRNA expression level” value was 1.48 fold and the “Fold of changes in relative LHPP mRNA expression level (log2)” value was 0.56 log2.
With “RAG7-103: saRNA duplex; sense AGCUUCCGAAAAGGACACCTT (SEQ ID NO: 72), antisense GGUGUCCUUUUCGGAAGCUTT (SEQ ID NO: 236) (sugars from the 5' end r19 d2, backbone not given here)” the “Fold of changes in relative LHPP mRNA expression level” value was 1.29 fold and the “Fold of changes in relative LHPP mRNA expression level (log2)” value was 0.37 log2.
With “RAG7-715: saRNA duplex; sense GUCCCGUUUUCUUCUCAGCTT (SEQ ID NO: 148), antisense GCUGAGAAGAAAACGGGACTT (SEQ ID NO: 312) (sugars from the 5' end r19 d2, backbone not given here)” the “Fold of changes in relative LHPP mRNA expression level” value was 1.13 fold and the “Fold of changes in relative LHPP mRNA expression level (log2)” value was 0.18 log2.
In the case of “RAG7-889: saRNA duplex; sense UGGACCAGAAGUAAAGUGUTT (SEQ ID NO: 115), antisense ACACUUUACUUCUGGUCCATT (SEQ ID NO: 279) (sugars from the 5' end r19 d2, backbone not given here)”, the “Fold of changes in relative LHPP mRNA expression level” value is reported as 1.19 fold and the “Fold of changes in relative LHPP mRNA expression level (log2)” value is reported as 0.25 log2.
For “RAG7-120: saRNA duplex; sense UGAUCUCCUGGGAAGAAAGTT (SEQ ID NO: 141), antisense CUUUCUUCCCAGGAGAUCATT (SEQ ID NO: 305) (sugars from the 5' end r19 d2, backbone not given here)”, the “Fold of changes in relative LHPP mRNA expression level” value was 1.14 fold and the “Fold of changes in relative LHPP mRNA expression level (log2)” value was 0.19 log2.
In the case of “RAG7-32: saRNA duplex; sense UUGCACCCGGUCUUCUUGCTT (SEQ ID NO: 44), antisense GCAAGAAGACCGGGUGCAATT (SEQ ID NO: 208) (sugars from the 5' end r19 d2, backbone not given here)”, the “Fold of changes in relative LHPP mRNA expression level” value is reported as 1.40 fold and the “Fold of changes in relative LHPP mRNA expression level (log2)” value is reported as 0.49 log2.
With “RAG7-181: saRNA duplex; sense CUCAAUUUGCCUUUGACCUTT (SEQ ID NO: 97), antisense AGGUCAAAGGCAAAUUGAGTT (SEQ ID NO: 261) (sugars from the 5' end r19 d2, backbone not given here)” the “Fold of changes in relative LHPP mRNA expression level” value was 1.22 fold and the “Fold of changes in relative LHPP mRNA expression level (log2)” value was 0.29 log2.
In the case of “RAG7-148: saRNA duplex; sense UUUUCUGCUUUUCCUGCUCTT (SEQ ID NO: 67), antisense GAGCAGGAAAAGCAGAAAATT (SEQ ID NO: 231) (sugars from the 5' end r19 d2, backbone not given here)”, the “Fold of changes in relative LHPP mRNA expression level” value is reported as 1.30 fold and the “Fold of changes in relative LHPP mRNA expression level (log2)” value is reported as 0.38 log2.
“RAG7-186: saRNA duplex; sense CUUGUCUCAAUUUGCCUUUTT (SEQ ID NO: 78), antisense AAAGGCAAAUUGAGACAAGTT (SEQ ID NO: 242) (sugars from the 5' end r19 d2, backbone not given here)” was tested, and the “Fold of changes in relative LHPP mRNA expression level” value was 1.28 fold and the “Fold of changes in relative LHPP mRNA expression level (log2)” value was 0.35 log2.
With “RAG7-114: saRNA duplex; sense CCUGGGAAGAAAGCUUCCGTT (SEQ ID NO: 73), antisense CGGAAGCUUUCUUCCCAGGTT (SEQ ID NO: 237) (sugars from the 5' end r19 d2, backbone not given here)” the “Fold of changes in relative LHPP mRNA expression level” value was 1.28 fold and the “Fold of changes in relative LHPP mRNA expression level (log2)” value was 0.36 log2.
With “RAG7-853: saRNA duplex; sense AACUUGAAAGGUUCCGAGGTT (SEQ ID NO: 146), antisense CCUCGGAACCUUUCAAGUUTT (SEQ ID NO: 310) (sugars from the 5' end r19 d2, backbone not given here)” the “Fold of changes in relative LHPP mRNA expression level” value was 1.14 fold and the “Fold of changes in relative LHPP mRNA expression level (log2)” value was 0.18 log2.
In the case of “RAG7-188: saRNA duplex; sense UUCUUGUCUCAAUUUGCCUTT (SEQ ID NO: 21), antisense AGGCAAAUUGAGACAAGAATT (SEQ ID NO: 185) (sugars from the 5' end r19 d2, backbone not given here)”, the “Fold of changes in relative LHPP mRNA expression level” value is reported as 1.55 fold and the “Fold of changes in relative LHPP mRNA expression level (log2)” value is reported as 0.64 log2.
For “RAG7-168: saRNA duplex; sense UGACCUUUCUUAGGGACUUTT (SEQ ID NO: 91), antisense AAGUCCCUAAGAAAGGUCATT (SEQ ID NO: 255) (sugars from the 5' end r19 d2, backbone not given here)”, the “Fold of changes in relative LHPP mRNA expression level” value was 1.24 fold and the “Fold of changes in relative LHPP mRNA expression level (log2)” value was 0.31 log2.
“RAG7-172: saRNA duplex; sense CCUUUGACCUUUCUUAGGGTT (SEQ ID NO: 81), antisense CCCUAAGAAAGGUCAAAGGTT (SEQ ID NO: 245) (sugars from the 5' end r19 d2, backbone not given here)” was tested, and the “Fold of changes in relative LHPP mRNA expression level” value was 1.27 fold and the “Fold of changes in relative LHPP mRNA expression level (log2)” value was 0.34 log2.
With “RAG7-839: saRNA duplex; sense CGAGGGGCCAUUGAGGAAATT (SEQ ID NO: 158), antisense UUUCCUCAAUGGCCCCUCGTT (SEQ ID NO: 322) (sugars from the 5' end r19 d2, backbone not given here)” the “Fold of changes in relative LHPP mRNA expression level” value was 1.11 fold and the “Fold of changes in relative LHPP mRNA expression level (log2)” value was 0.15 log2.
For “RAG7-898: saRNA duplex; sense AAGCUAUGUUGGACCAGAATT (SEQ ID NO: 59), antisense UUCUGGUCCAACAUAGCUUTT (SEQ ID NO: 223) (sugars from the 5' end r19 d2, backbone not given here)”, the “Fold of changes in relative LHPP mRNA expression level” value was 1.34 fold and the “Fold of changes in relative LHPP mRNA expression level (log2)” value was 0.43 log2.
In the case of “RAG7-821: saRNA duplex; sense ACUCCUCCCUUUUAAUAUCTT (SEQ ID NO: 89), antisense GAUAUUAAAAGGGAGGAGUTT (SEQ ID NO: 253) (sugars from the 5' end r19 d2, backbone not given here)”, the “Fold of changes in relative LHPP mRNA expression level” value is reported as 1.25 fold and the “Fold of changes in relative LHPP mRNA expression level (log2)” value is reported as 0.32 log2.
